Measured values reported in ChEMBL document CHEMBL4613212, “Insights of synthetic analogues of anti-leprosy agents” (Bioorg Med Chem, 2019).
In brackets after ≈: the same amount, converted by molar mass.

Tested on: Mycobacterium tuberculosis
Assay: Antimycobacterial activity against Mycobacterium bovis BCG Pasteur incubated for 10 days by spectrophotometric based assay
Assay type: functional
Details: variant bovis BCG, 240 h

Compound	MIC99 [µM]
O=C1c2ccccc2C(=O)N1c1ccc(S(=O)(=O)Nc2ccccn2)cn1	1900 (≈ 723 µg/mL)
CCCCCCCCC(CCC1CCCC1)C(=O)NCC (stereo not given)	4400 (≈ 1300 µg/mL)
O=C1c2ccccc2C(=O)N1c1ccc(S(=O)(=O)Nc2ccncn2)cc1	1900 (≈ 723 µg/mL)
CCCOCOCCC(CCC1CCCC1)C(=O)O (stereo not given)	500 (≈ 136 µg/mL)
CCCCCCCCC(CCC1=CCC=C1)C(=O)O (stereo not given)	6000 (≈ 1590 µg/mL)
CCCCCCCCC(COC1CCCC1)C(=O)O (stereo not given)	2200 (≈ 595 µg/mL)
O=C1c2ccccc2C(=O)N1c1cnc(S(=O)(=O)Nc2ccccn2)cn1	900 (≈ 343 µg/mL)
CCCCCCCCC(CCC1CCCS1)C(=O)O (stereo not given)	5400 (≈ 1550 µg/mL)
CCCCCCCCC(CCC1CCCN1)C(=O)O (stereo not given)	5100 (≈ 1370 µg/mL)
CCCCCCCCC(CCC1CCCC1)C(=O)OC (stereo not given)	1500 (≈ 424 µg/mL)
CCCCCCCCC(CCC1CCCC1)C(N)=O (stereo not given)	5400 (≈ 1440 µg/mL)
CCCCCCCCC(CCC1CCCO1)C(=O)O (stereo not given)	2500 (≈ 676 µg/mL)
O=C1c2ccccc2C(=O)N1c1ccc(S(=O)(=O)Nc2cnccn2)cc1	1000 (≈ 380 µg/mL)
CCCCCCOCC(CCC1CCCC1)C(=O)O (stereo not given)	1100 (≈ 297 µg/mL)
O=C(O)C(CCCCCCCF)CCC1CCCC1 (stereo not given)	1600 (≈ 436 µg/mL)
